*1 amine or outer side, *2 acyl side, *3 side chain or, on linkers, in order; H or OH if unused. Where a SMILES comes first, the peptide text is derived from it. Bridges are numbered along the chain shown (N, C = ends). [ ]: non-standard residue; d: D form. The star is where a group is joined. X1 = NC1=N[C@@H]([C@H](N[*:1])C(=O)[*:2])C[C@H](O)N1; ΔAla(Z-3-ureido) = NC(=O)N/C=C(\N)C(=O)O; β3hOrn = NCCC[C@H](N)CC(=O)*; Dap = NC[C@H](N)C(=O)O

The data set concerns Phospholipidosis. Nature of the data set: Literature-mined public compounds from Kruhlak et al phospholipidosis modelling dataset.
In the case of `COc1cc(NS(=O)(=O)c2ccc(N)cc2)nc(OC)n1` [SULFADIMETHOXINE], the Phospholipidosis entry is “Negative: based on the absence of positive reported data from WMDD”.

Turning to `COc1ncnc(NS(=O)(=O)c2ccc(N)cc2)c1OC` [SULFADOXINE], the Phospholipidosis entry is listed as “Negative: based on the absence of positive reported data from WMDD”.

Consider `Cc1cc(NS(=O)(=O)c2ccc(N)cc2)no1` [SULFAMETHOXAZOLE], for which the Phospholipidosis result is “Negative: confirmed by electron microscopy”.

Take `O=C1OC(c2ccc(O)c(S(=O)(=O)O)c2)(c2ccc(O)c(S(=O)(=O)O)c2)c2c(Br)c(Br)c(Br)c(Br)c21` [SULFOBROMOPHTHALEIN]: the Phospholipidosis result was “Negative: based on the absence of positive reported data from WMDD”.

Take `Cc1ccc(C(=O)Nc2ccc(S(=O)(=O)O)c3cc(S(=O)(=O)O)cc(S(=O)(=O)O)c23)cc1NC(=O)c1cccc(NC(=O)Nc2cccc(C(=O)Nc3cc(C(=O)Nc4ccc(S(=O)(=O)O)c5cc(S(=O)(=O)O)cc(S(=O)(=O)O)c45)ccc3C)c2)c1` [SURAMIN]: the Phospholipidosis result is “Positive: weak inducer based on presence of foamy macrophages and cytoplasmic vacuolations”.

On to `C[N+](C)(C)CCOC(=O)CCC(=O)OCC[N+](C)(C)C` [SUXAMETHONIUM], for which the Phospholipidosis entry is “Negative: based on the absence of positive reported data from WMDD”.

Consider `CC/C(=C(\c1ccccc1)c1ccc(OCCN(C)C)cc1)c1ccccc1` [TAMOXIFEN], for which the Phospholipidosis entry is given as “Positive: strong inducer confirmed by electron microscopy”.

Take `C[C@]1(Cn2ccnn2)[C@H](C(=O)O)N2C(=O)C[C@H]2S1(=O)=O` [TAZOBACTAM]: the Phospholipidosis result is “Negative: based on the absence of positive reported data from WMDD”.

With `COc1cc2nc(N3CCN(C(=O)C4CCCO4)CC3)nc(N)c2cc1OC` (centres undefined) [TERAZOSIN], the Phospholipidosis result is “Negative: based on the absence of positive reported data from WMDD”.

For the compound `CN(C/C=C/C#CC(C)(C)C)Cc1cccc2ccccc12` [TERBINAFINE], the Phospholipidosis entry was “Negative: based on the absence of positive reported data from WMDD”.

Turning to `CC(C)(C)NCC(O)c1cc(O)cc(O)c1` (centres undefined) [TERBUTALINE], the Phospholipidosis result was “Negative: based on the absence of positive reported data from WMDD”.

For `CC1(O)CCC(C(C)(C)O)CC1.O` (centres undefined) [TERPIN HYDRATE], the Phospholipidosis entry is on record as “Negative: based on the absence of positive reported data from WMDD”.

Regarding `CN(C)[C@@H]1C(O)=C(C(N)=O)C(=O)[C@@]2(O)C(O)=C3C(=O)c4c(O)cccc4[C@@](C)(O)[C@H]3C[C@@H]12` [TETRACYCLINE], the Phospholipidosis entry is “Negative: confirmed by electron microscopy”.

With `O=C1CCC(N2C(=O)c3ccccc3C2=O)C(=O)N1` (centres undefined) [THALIDOMIDE], the Phospholipidosis result is listed as “Negative: based on the absence of positive reported data from WMDD”.

As for `CS(=O)(=O)c1ccc([C@H](O)[C@@H](COC(=O)CN)NC(=O)C(Cl)Cl)cc1` [THIAMPHENICOL GLYCINATE], the Phospholipidosis result is “Negative: based on the absence of positive reported data from WMDD”.

`CS(=O)(=O)c1ccc([C@@H](O)[C@@H](CO)NC(=O)C(Cl)Cl)cc1` [THIAMPHENICOL]: the Phospholipidosis entry is listed as “Negative: based on the absence of positive reported data from WMDD”.

Consider `CCCC(C)C1(CC)C(=O)NC(=S)NC1=O` (centres undefined) [THIOPENTAL], for which the Phospholipidosis result was “Negative: based on the absence of positive reported data from WMDD”.

For the compound `CC(=O)OCCN1CCN(CCCN2c3ccccc3Sc3ccc(Cl)cc32)CC1` [THIOPROPAZATE], the Phospholipidosis entry is given as “Negative: based on the absence of positive reported data from WMDD”.

Regarding `CSc1ccc2c(c1)N(CCC1CCCCN1C)c1ccccc1S2` (centres undefined) [THIORIDAZINE], the Phospholipidosis entry was “Positive: weak inducer based on presence of foamy macrophages and cytoplasmic vacuolations”.

Take `CN1CCN(CC/C=C2/c3ccccc3Sc3ccc(S(=O)(=O)N(C)C)cc32)CC1` [THIOTHIXENE]: the Phospholipidosis result is “Negative: based on the absence of positive reported data from WMDD”.

With `O=c1cc[nH]c(=S)[nH]1` [THIOURACIL], the Phospholipidosis entry is listed as “Negative: based on the absence of positive reported data from WMDD”.

On to `Cc1ccsc1C(=CCCN1CCC[C@@H](C(=O)O)C1)c1sccc1C` [TIAGABINE], for which the Phospholipidosis result is “Negative: based on the absence of positive reported data from WMDD”.

For the compound `O=C(Cn1c(=O)sc2ccc(Cl)cc21)N1CCN(CCO)CC1` [TIARAMIDE], the Phospholipidosis result is “Negative: based on the absence of positive reported data from WMDD”.

Turning to `Clc1ccccc1CN1CCc2sccc2C1` [TICLOPIDINE], the Phospholipidosis entry is “Negative: based on the absence of positive reported data from WMDD”.

As for `CCN(CC)CCOc1ccc2c(c1)C(=O)c1cc(OCCN(CC)CC)ccc1-2` [TILORONE], the Phospholipidosis entry is “Positive: strong inducer confirmed by electron microscopy”.

For the compound `O=C(O)C1CSCN1` (centres undefined) [TIMONACIC], the Phospholipidosis entry is recorded as “Negative: based on the absence of positive reported data from WMDD”.

As for `CC(S)C(=O)NCC(=O)O` (centres undefined) [TIOPRONIN], the Phospholipidosis entry is “Negative: based on the absence of positive reported data from WMDD”.

Regarding `Clc1ccc2nsnc2c1NC1=NCCN1` [TIZANIDINE], the Phospholipidosis entry is recorded as “Negative: based on the absence of positive reported data from WMDD”.

On to `NC[C@H]1O[C@H](O[C@H]2[C@H](O)[C@@H](O[C@H]3O[C@H](CO)[C@@H](O)[C@H](N)[C@H]3O)[C@H](N)C[C@@H]2N)[C@H](N)C[C@@H]1O` [TOBRAMYCIN], for which the Phospholipidosis entry is “Positive: strong inducer confirmed by electron microscopy”.

`Cc1ccc(C(=O)c2cc(O)c(O)c([N+](=O)[O-])c2)cc1` [TOLCAPONE]: the Phospholipidosis entry is reported as “Negative: based on the absence of positive reported data from WMDD”.

Regarding `Cc1ccc(C(=O)C(C)CN2CCCCC2)cc1` (centres undefined) [TOLPERISONE], the Phospholipidosis entry is on record as “Negative: based on the absence of positive reported data from WMDD”.

For `CN(C)CCOc1ccc(/C(=C(/CCCl)c2ccccc2)c2ccccc2)cc1` [TOREMIFENE], the Phospholipidosis result is “Negative: based on the absence of positive reported data from WMDD”.

Consider `COc1cccc(C2(O)CCCCC2CN(C)C)c1` (centres undefined) [TRAMADOL], for which the Phospholipidosis entry was “Negative: based on the absence of positive reported data from WMDD”.

`CCOC(=O)[C@H](CCc1ccccc1)N[C@@H](C)C(=O)N1[C@H](C(=O)O)C[C@H]2CCCC[C@@H]21` [TRANDOLAPRIL]: the Phospholipidosis result is “Negative: based on the absence of positive reported data from WMDD”.

For the compound `OCC(Br)(Br)Br` [TRIBROMOETHANOL], the Phospholipidosis result is “Negative: based on the absence of positive reported data from WMDD”.

As to `NS(=O)(=O)c1cc2c(cc1Cl)NC(C(Cl)Cl)NS2(=O)=O` (centres undefined) [TRICHLORMETHIAZIDE], the Phospholipidosis entry was “Negative: based on the absence of positive reported data from WMDD”.

For `O=C(CCCN1CCC(O)(c2cccc(C(F)(F)F)c2)CC1)c1ccc(F)cc1` [TRIFLUPERIDOL], the Phospholipidosis entry was “Negative: based on the absence of positive reported data from WMDD”.

Take `CCC(COC(=O)c1cc(OC)c(OC)c(OC)c1)(c1ccccc1)N(C)C` (centres undefined) [TRIMEBUTINE]: the Phospholipidosis result is “Negative: based on the absence of positive reported data from WMDD”.

On to `CN1C(=O)OC(C)(C)C1=O` [TRIMETHADIONE], for which the Phospholipidosis result is recorded as “Negative: based on the absence of positive reported data from WMDD”.

Consider `COc1cc(Cc2cnc(N)nc2N)cc(OC)c1OC` [TRIMETHOPRIM], for which the Phospholipidosis result is given as “Negative: based on the absence of positive reported data from WMDD”.

Turning to `COc1cc(C(=O)N2CCOCC2)cc(OC)c1OC` [TRIMETOZINE], the Phospholipidosis entry is “Negative: based on the absence of positive reported data from WMDD”.

With `CC(CN(C)C)CN1c2ccccc2CCc2ccccc21` (centres undefined) [TRIMIPRAMINE], the Phospholipidosis result was “Positive: weak inducer based on presence of foamy macrophages and cytoplasmic vacuolations”.

Take `CCN(CC)CCOc1ccc(C(O)(Cc2ccc(Cl)cc2)c2ccc(C)cc2)cc1` (centres undefined) [TRIPARANOL]: the Phospholipidosis entry is “Positive: strong inducer confirmed by electron microscopy”.

With `CN(C)CCN(Cc1ccccc1)c1ccccn1` [TRIPELENNAMINE], the Phospholipidosis entry was “Positive: weak inducer based on presence of foamy macrophages and cytoplasmic vacuolations”.

Regarding `Cc1ccc(/C(=C\CN2CCCC2)c2ccccn2)cc1` [TRIPROLIDINE], the Phospholipidosis entry is “Negative: based on the absence of positive reported data from WMDD”.

`Cc1c(C)c2c(c(C)c1O)CCC(C)(COc1ccc(CC3SC(=O)NC3=O)cc1)O2` (centres undefined) [TROGLITAZONE]: the Phospholipidosis result is “Negative: based on the absence of positive reported data from WMDD”.

In the case of `CCCC(CCC)C(=O)O` [VALPROIC ACID], the Phospholipidosis result is on record as “Negative: confirmed by electron microscopy”.

In the case of `CCCC(CCC)C(N)=O` [VALPROMIDE], the Phospholipidosis entry is listed as “Negative: based on the absence of positive reported data from WMDD”.

Turning to `COc1ccc(C(CN(C)C)C2(O)CCCCC2)cc1` (centres undefined) [VENLAFAXINE], the Phospholipidosis entry was “Negative: based on the absence of positive reported data from WMDD”.

Take `CC[C@]1(O)C[C@@H]2CN(CCc3c([nH]c4ccccc34)[C@@](C(=O)OC)(c3cc4c(cc3OC)N(C)[C@H]3[C@@](O)(C(=O)OC)[C@H](OC(C)=O)[C@]5(CC)C=CCN6CC[C@]43[C@@H]65)C2)C1` [VINBLASTINE]: the Phospholipidosis result is recorded as “Negative: confirmed by electron microscopy”.

For `CC[C@]1(O)C[C@@H]2CN(CCc3c([nH]c4ccccc34)[C@@](C(=O)OC)(c3cc4c(cc3OC)N(C)[C@H]3[C@@](O)(C(N)=O)[C@H](O)[C@]5(CC)C=CCN6CC[C@]43[C@@H]65)C2)C1` [VINDESINE], the Phospholipidosis result is “Negative: based on the absence of positive reported data from WMDD”.

In the case of `NCCC[C@H](N)CC(=O)N[C@H]1CNC(=O)[C@H]([C@H]2C[C@H](O)NC(N)=N2)NC(=O)/C(=C/NC(N)=O)NC(=O)[C@H](CO)NC(=O)[C@H](CO)NC1=O` [VIOMYCIN] (β3hOrn-[Dap]SS[ΔAla(Z-3-ureido)][X1]; lactam 1-C), the Phospholipidosis result is recorded as “Negative: based on the absence of positive reported data from WMDD”.

With `CC(=O)CC(c1ccccc1)c1c(O)c2ccccc2oc1=O` (centres undefined) [WARFARIN], the Phospholipidosis entry was “Negative: based on the absence of positive reported data from WMDD”.

Take `O=C[C@H](O)[C@@H](O)[C@H](O)CO` [XYLOSE]: the Phospholipidosis entry is on record as “Negative: based on the absence of positive reported data from WMDD”.
